In PMC10649178, “Exploring the Interactions of Soybean 7S Globulin with Gallic Acid, Chlorogenic Acid and (−)-Epigallocatechin Gallate” (Foods, 2023):
pKd: −log10 of the molar value. Marks after values point to notes of the source that are not given here.

What was measured:
[1] = target: T1, soybean 7S globulin (7S; β-conglycinin) (Glycine max, UniProt P0DO16+P11827+P25974); experiment: isothermal titration calorimetry, one-site model; format: binding; settings: 10 mM phosphate pH 7.0, 25 °C, 5 mM ligand
T1 construct: gene CG-1; mature trimers of α, α’ and β, 150-180 kDa
T1 sequence (P11827 63-621): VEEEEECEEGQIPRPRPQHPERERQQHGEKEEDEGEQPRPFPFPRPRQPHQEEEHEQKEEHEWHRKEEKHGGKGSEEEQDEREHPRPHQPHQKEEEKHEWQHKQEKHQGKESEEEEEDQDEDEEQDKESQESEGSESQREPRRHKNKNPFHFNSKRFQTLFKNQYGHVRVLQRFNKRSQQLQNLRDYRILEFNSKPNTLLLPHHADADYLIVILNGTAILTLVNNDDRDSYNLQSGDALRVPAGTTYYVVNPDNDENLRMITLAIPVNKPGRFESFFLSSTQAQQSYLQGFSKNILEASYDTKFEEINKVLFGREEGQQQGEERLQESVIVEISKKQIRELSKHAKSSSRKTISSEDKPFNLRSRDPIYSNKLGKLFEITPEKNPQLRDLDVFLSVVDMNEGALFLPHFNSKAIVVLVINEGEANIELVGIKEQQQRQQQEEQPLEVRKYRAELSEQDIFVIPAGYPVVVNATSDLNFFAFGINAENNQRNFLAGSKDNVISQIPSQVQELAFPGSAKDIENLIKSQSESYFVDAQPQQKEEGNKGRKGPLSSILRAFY
T1 sequence (P0DO16 63-605): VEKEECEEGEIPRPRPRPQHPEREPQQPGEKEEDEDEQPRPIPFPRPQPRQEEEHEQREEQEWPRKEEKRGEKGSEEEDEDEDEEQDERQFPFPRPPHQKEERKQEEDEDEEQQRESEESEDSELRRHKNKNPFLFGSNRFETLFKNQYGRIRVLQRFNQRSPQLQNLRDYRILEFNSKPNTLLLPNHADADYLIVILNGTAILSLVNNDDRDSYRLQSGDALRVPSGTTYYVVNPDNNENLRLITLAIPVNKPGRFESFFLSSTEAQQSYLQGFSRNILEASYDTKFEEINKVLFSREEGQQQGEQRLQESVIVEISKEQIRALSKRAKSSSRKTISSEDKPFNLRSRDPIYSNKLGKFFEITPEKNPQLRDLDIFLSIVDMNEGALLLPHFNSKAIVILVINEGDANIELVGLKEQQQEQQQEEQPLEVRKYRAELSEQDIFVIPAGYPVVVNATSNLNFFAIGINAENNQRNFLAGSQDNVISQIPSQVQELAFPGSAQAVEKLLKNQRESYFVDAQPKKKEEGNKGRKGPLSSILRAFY
T1 sequence (P25974 24-439): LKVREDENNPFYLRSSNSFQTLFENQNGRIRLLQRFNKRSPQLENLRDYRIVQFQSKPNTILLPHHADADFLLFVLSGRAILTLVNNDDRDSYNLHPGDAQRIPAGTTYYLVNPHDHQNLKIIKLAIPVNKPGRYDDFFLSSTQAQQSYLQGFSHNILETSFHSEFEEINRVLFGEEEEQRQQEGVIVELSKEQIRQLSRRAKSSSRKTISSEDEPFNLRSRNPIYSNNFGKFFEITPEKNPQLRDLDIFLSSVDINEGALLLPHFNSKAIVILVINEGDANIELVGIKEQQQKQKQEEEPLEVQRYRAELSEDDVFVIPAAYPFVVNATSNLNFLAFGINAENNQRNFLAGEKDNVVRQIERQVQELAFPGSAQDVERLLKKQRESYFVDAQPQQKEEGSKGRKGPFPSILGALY
Text: isothermal titration calorimetry, one-site model on soybean 7S globulin (7S; β-conglycinin)

[2] = target: T1, soybean 7S globulin (7S; β-conglycinin); experiment: intrinsic fluorescence quenching, double-logarithmic fit; format: binding; settings: 10 mM phosphate pH 7.0, 298 K, 10 μM 7S, 0-12 μM ligand
Text: intrinsic fluorescence quenching, double-logarithmic fit on soybean 7S globulin (7S; β-conglycinin)

O=C(O)c1cc(O)c(O)c(O)c1 [GA, gallic acid]
pKd ([1]; 10 μM 7S, N = 10.0 sites): 3.14
Ka (10^4 L/mol) ([2]; n = 1.12): 5.10 ± 0.30 (10^4)

O=C(/C=C/c1ccc(O)c(O)c1)O[C@@H]1C[C@](O)(C(=O)O)C[C@@H](O)[C@H]1O [CA, chlorogenic acid]
pKd ([1]; 10 μM 7S, N = 7.23 sites): 3.35
Ka (10^4 L/mol) ([2]; n = 1.42): 7.44 ± 0.32 (10^4)

O=C(O[C@@H]1Cc2c(O)cc(O)cc2O[C@@H]1c1cc(O)c(O)c(O)c1)c1cc(O)c(O)c(O)c1 [EGCG, (−)-epigallocatechin gallate]
pKd ([1]; 5 μM 7S, N = 1.68 sites): 3.31
Ka (10^4 L/mol) ([2]; n = 1.25): 6.23 ± 0.30 (10^4)
